Data published in US11267802B2 (BEBETTER MED INC., priority 2015, dated 2022).

Key:
[1] = Pharmacokinetics in beagles after oral administration; format: in vivo; details: male, beagle, dog, 5 mg/kg, plasma
Method: Male SD rats weighing 250-300 g, or male beagles weighing 9-10 kg, were fasted overnight before the experiment. The object compounds were dissolved in 30% sulfobutylated beta-cyclodextrin (SBE-β-CD), and orally administrated to the rats at a dose of 20 mg/kg or to the beagles at a dose of 5 mg/kg. Blood samples were taken at 15 minutes, 30 minutes, 1 hour, 2 hours, 3 hours, 4 hours, 6 hours, 8 hours and 24 hours after administration. 0.3 ml of blood was collected at every time point, placed in a centrifuge tube containing K2-EDTA (ethylenediamine tetraacetic acid dipotassium) and centrifuged (2,000 g, 10 minutes, 4° C.) to collect plasma, which was then stored in an ultra cold storage freezer at −80° C. 50 μL of plasma sample was mixed with 5 μL of internal standard (IS), and then extracted with ethyl acetate. After vacuum drying, the residue was re-dissolved in acetonitrile. The sample was filtered and injected into LC-MS/MS for analysis.

[2] = test system: EGFR phosphorylation in H1975 xenograft tumor; assay: Pharmacodynamic experiments of tumor model (EGFR phosphorylation, Western blot); format: in vivo, Balb/C nude mice; details: oral 30 mg/kg
Method: (§1) Balb/C nude mice were purchased from Beijing Vital River Laboratory Animal Technology Co., Ltd., and housed in SPF animal room. The human non-small-cell lung cancer cell line H1975 in a culture dish was collected by trypsin-EDTA (0.25% trypsin, 1 mM EDTA), and then washed with a serum-free PBS solution. Lastly, the cells were implanted after diluted in a serum-free medium. Only the single cell suspension with a survival rate over 90% (Trypan blue rejection) can be used for injection. 5 million cells suspended in a 0.1 ml serum-free culture were injected into the front right flanking subcutaneous region of each mouse by using a 1 ml syringe and a 25G syringe needle, and the blood vessel was carefully avoided. The tumor size was measured in about one week after implantation. A caliper rule was used to measure the tumor size. The tumor volume was calculated by the following formula: tumor volume=(length×width^2)/2.
When the H1975 xenograft tumor reached a volume of about […], the animals were divided into 4 oral administration groups, that is, excipient control group (0 hour) and groups of 2 hours, 4 hours, and 8 hours after administration (3 to 4 animals at each time point). […]
20 mg of tumor tissue was homogenized in 300 μl of protein extract (RIPA, CST, #9806). […] The protein concentration was determined by Bradford method (Beyotime, # P0006). […]

H1975 xenograft tumor = assay: Potency assay of tumor model, 16 consecutive days; format: in vivo, Balb/C nude mice; details: oral
Method: as §1
This experiment studied the inhibition of tumor growth in H1975 xenograft tumor model by the compounds 20, 50, 91, and 118. When the mean volume of H1975 tumor reached about 260 mm^3, the animals were divided into 5 oral administration groups, that is, excipient control group and groups of oral administration of compound 20, compound 50, compound 91, and compound 118, respectively (n=8/group). These compounds were dissolved in 30% sulfobutylated beta-cyclodextrin (SBE-β-CD) and 1N HCl (pH 3-4). […]

H358 = assay: Inhibition assay on tumor cell proliferation (CellTiter-Glo), H358; format: cell-based, Human; details: Homo sapiens, NCI-H358; H358 (wild-type EGFR), 72 hours, 10% bovine serum
In short: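 Viability from ATP content by CellTiter-Glo luminescence; inhibition normalised to DMSO (max) and medium-only (min) wells, IC50 by sigmoidal dose-response fitting. LOVO and H358 carry wild-type EGFR; HCC827 has exon 19 deletion.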

Compound: C=CC(=O)Nc1cc(Nc2nccc(-n3c(=O)n(C(C)C)c4cc(F)ccc43)n2)c(OC)cc1N(C)CCN(C)C [Compound 91, N-(2-((2-(dimethylamino)ethyl)(methyl)amino)-5-(4-(5-fluoro-3-isopropyl-2-oxo-2,3-dihydro-1H-benzo[d]imidazol-1-yl)pyrimidin-2-ylamino)-4-methoxyphenyl)acrylamide]
- AUC(0-inf) [1]: 814 ng·h/mL
- Cmax [1]: 109 ng/mL
- Tmax [1]: 1.67 h
- half-life [1]: 4.37 h
- AUC(0-t) ([1]; read-out: AUC0-24): 786 ng·h/mL
- inhibition of EGFR phosphorylation in H1975 tumor (in words) ([2]; at 2 hours and 4 hours): strong
- inhibition of EGFR phosphorylation in H1975 tumor (in words) ([2]; at 8 hours): obvious inhibition effect
- T/C value (H1975 xenograft tumor; 30 mg/kg qd as printed, 16 days after administration): −95%
- inhibition of growth of H1975 xenograft tumor (in words) (H1975 xenograft tumor; 30 mg/kg qd, 16 days): tumor regression
- IC50 (H358): 100 to 1000 nM
